The test system of series [1] is wild-type flies. Particulars: literature and unpublished data; cited from earlier work.
Series [2] has as its system wild-type flies. Briefly: Pharmacologically induced waking in flies (Trikinetics activity monitoring). The series is classed as in vivo, Drosophila melanogaster. Particulars: drug dissolved in food. How it is done:
(§1) Three day old female flies were placed in 65 mm glass tubes and sleep parameters were continuously evaluated throughout all experiments using the Trikinetics activity monitoring system as previously described (Shaw, P J et al., 2000. Science 287: 1834-1837; Shaw, P J et al., 2002. Nature 417: 287-291) (www.Trikinetics.com). […] Three independent replicates of 32 flies were conducted for each time point. Following SD, two thirds of the flies from each group were frozen and RNA was extracted from whole heads. The remaining one third of the flies were monitored for an additional 24 h to assay the size of the homeostatic response. Using this protocol, both gene expression and behavior can be evaluated in siblings that have been exposed to identical environments and experimental manipulations.
Pharmacological studies were conducted on female Canton-s flies. Three-day old Cs female flies were individually placed into 65 mm glass tubes in the Trikinetics activity monitoring system and evaluated for two days under LD. […] It could be determined, therefore, if the fly had ingested the drug not only by its behavior, but also by observing the dye in its abdomen. The following morning, after 14 h of drug treatment, two thirds of the flies from each group were frozen and RNA was extracted from whole heads and the amount of dye in the abdomen was evaluated. […]

For series [3], the system named is wild-type flies. Briefly: Homeostatic response (sleep recovered) in the 24 h after 14 h of drug-induced waking. The series is classed as in vivo, Drosophila melanogaster. Conditions: for homeostatic response / compensation for sleep lost during drug-induced waking: 14 h on drug, 24 h recovery, caffeine 2.5 mg/ml, methamphetamine 1 mg/ml. The method, then:
as §1
(§2) Pharmacological studies were conducted on female Canton-s flies. Three-day old Cs female flies were individually placed into 65 mm glass tubes in the Trikinetics activity monitoring system and evaluated for two days under LD. […] All groups had similar amounts of baseline sleep. In all cases, the drug was dissolved in food along with an inert dye. It could be determined, therefore, if the fly had ingested the drug not only by its behavior, but also by observing the dye in its abdomen. The following morning, after 14 h of drug treatment, two thirds of the flies from each group were frozen and RNA was extracted from whole heads and the amount of dye in the abdomen was evaluated. The remaining one third of the flies were monitored for an additional 24 h to assay the size of the homeostatic response.
Sustained periods of waking in the fly can be induce pharmacologically (Hendricks, J C et al., 2000. Neuron 25: 129-138; Shaw, P J et al., 2000. Science 287: 1834-1837). […] Therefore wild-type flies were exposed to either caffeine or methamphetamine for 14 h and evaluated the magnitude of the homeostatic response. As above, gene expression was evaluated using qPCR and one third of the flies were allowed to recover for 24 h after drug removal and regular food was restored. […]

Another series has as its system Amylase mRNA (CG18640). Briefly: qPCR of Amylase (CG18640) mRNA from whole heads after drug-induced waking. Conditions: wild-type fly heads, immediately after 14 h of drug-induced waking; caffeine 2.5 mg/mL, methamphetamine 1 mg/ml. The format is in vivo, Drosophila melanogaster. How it is done: as §2
Total RNA was isolated from fly heads using Trizol (Invitrogen, Carlsbad, Calif.) following the manufacturers protocol. […] Values were expressed as a percentage of untreated animals and were evaluated using a one-way ANOVA.
Sustained periods of waking in the fly can be induce pharmacologically (Hendricks, J C et al., 2000. Neuron 25: 129-138; Shaw, P J et al., 2000. Science 287: 1834-1837). […] Therefore wild-type flies were exposed to either caffeine or methamphetamine for 14 h and evaluated the magnitude of the homeostatic response. […]

The subject of the next series is Amy/Luc flies. Briefly: Bioluminescence recording in Amy/Luc flies (amylase promoter linked to firefly luciferase). The series is classed as in vivo, Drosophila melanogaster. Conditions: caffeine 2.5 mg/ml from the morning after a full night's sleep, recorded 12 h, n=9. How it is done: Prior to luminescence recordings, sleep was evaluated for 2 days in female Amy/Luc flies as described above with the exception that they were maintained on 0.5% sucrose supplemented with 1 mM beetle luciferin (Promega, Madison Wis.). On day 3, flies were sleep deprived for 12 h (n=9) or served as untreated controls (n=9). Flies that were sleep deprived were removed from their 65 mm glass tubes and placed into Petri dishes with 200 μl of fresh 0.5% sucrose 1 mM beetle luciferin. Siblings that had not been sleep deprived were placed into Petri dishes with 2.5 mg/ml of caffeine added to the 0.5% sucrose 1 mM beetle luciferin. Bioluminescence was subsequently recorded in 1 min bins for 12 h under photomultiplier tubes (HC135-11MOD; Hamamatsu, Shizouka, Japan) as previously described (Abraham, U, et al., 2005. J Neurosci 25: 8620-8626). Amy/Luc flies that had never been exposed to luciferin were recorded for 12 h and served as a blank. Luminescence for SD and caffeine treated flies was subtracted from the blank and smoothed using a 3 h running average. Two independent replicates were conducted.
To determine whether amylase can provide an assessment of sleep drive in real-time, a Drosophila line in which the promoter for amylase was linked to the firefly luciferase (Amy/Luc) was evaluated (Hickey, D A, et al., 1994. Proc Natl Acad Sci USA 91: 11109-11112). […]

A further series has as its system amylase activity. Briefly: Amylase activity in fly homogenates after paraquat stress (Infinity Amylase reagent). The series is classed as in vivo, Drosophila melanogaster. Conditions: Cs female flies, 20 μM paraquat in 1% agar 5% sucrose for 16 h. How it is done:
Amylase activity was evaluated following 28 h of sleep deprivation in Cs flies to match the duration of waking used in the human experiments. Female Cs flies were sleep deprived for 28 h beginning at lights out (8 pm). Whole body homogenates were extracted from 4 groups of 5 flies and compared to untreated circadian-matched controls; experiments were conducted in duplicate. Amylase activity was determined using the Infinity Amylase reagent (TR25421; Thermo Electron Corp, Louisville, Co., USA) according to the manufacturer's instructions. All samples were assayed in quadruplicate. To evaluate the effects of stress on amylase activity, Cs females were placed onto 20 μM paraquat dissolved in 1% agar 5% sucrose for 16 h and sacrificed at the same circadian time as the 28 h SD flies and their controls.

The next series relates to flies. Conditions: 20 μM paraquat, exposures longer than 16 h; Shaw et al. 2002; cited from earlier work.

Entries after “also recorded” stand apart in the source; their conditions may differ. Read-outs that look alike come from different tables or passages of the source.

Consider `CC(N)Cc1ccccc1` (stereo not shown) [amphetamine], for which the “waking produced by the drug” value in the series with wild-type flies [1] was “produce waking”.
For the compound `Cn1c(=O)c2c(ncn2C)n(C)c1=O` [caffeine], in the series on wild-type flies [2], the “waking produced by the drug” value is “produce sustained periods of waking”. For the same compound, the lost sleep recovered in the series with wild-type flies [3] (14 h of caffeine-induced waking, FIG. 5A) is listed as 30-50%. Moreover, in the series with wild-type flies [3], the “homeostatic response / compensation for sleep lost during drug-induced waking” value was “exhibit a rebound of similar magnitude as that seen following manual SD”. The “Amylase (CG18640) mRNA expression vs. untreated controls” value with Amylase mRNA (CG18640) is “strongly activated; also recorded: exhibit significant increases in Amylase mRNA; also recorded: elevated”. Further, in the series with Amy/Luc flies, the “bioluminescence (counts/min) in Amy/Luc flies” value is reported as “increased as the animals spent more time on caffeine; also recorded: progressive increase in bioluminescence”.
Turning to `CN[C@@H](C)Cc1ccccc1` [methamphetamine], the “waking produced by the drug” value in the series on wild-type flies [2] was “produce sustained periods of waking”. For the same compound, the “homeostatic response / compensation for sleep lost during drug-induced waking” value in the series on wild-type flies [3] is “do not compensate for the lost sleep; also recorded: do not induce a homeostatic response”. In addition, the “Amylase (CG18640) mRNA expression vs. untreated controls” value with Amylase mRNA (CG18640) is reported as “not activated; also recorded: do not induce Amylase mRNA; also recorded: not after waking induced by methamphetamine”.
Regarding `COC(=O)C(c1ccccc1)C1CCCCN1` (stereo not shown) [methylphenidate], the “waking produced by the drug” value with wild-type flies [1] is given as “produce waking”.
As to `NC(=O)C[S+]([O-])C(c1ccccc1)c1ccccc1` (stereo not shown) [modafinil], the “waking produced by the drug” value in the series with wild-type flies [1] is given as “produce waking”.
`C[n+]1ccc(-c2cc[n+](C)cc2)cc1` [paraquat]: the amylase activity entry in the series on amylase activity is “did not alter Amylase activity”. The lethality on paraquat result with flies is recorded as “flies begin to die during longer exposures”.

The record behind these values is US7915005B2, “Methods for detecting sleepiness” (Washington University in St. Louis, priority 2005, dated 2011).
